Results taken from the supplement of paper PMC8967900.

What was measured:
Experiment in all cases: selective drug sensitivity score (sDSS, relative to normal bone marrow) (sDSS (score)); higher = more potent and effective on the cell line relative to normal bone marrow cells
Conditions in all cases: 72 h
NALM-16 = test system: NALM-16
ALL-SIL = test system: ALL-SIL
697 = test system: 697
COG-LL-332h = test system: COG-LL-332h
CCRF-CEM = test system: CCRF-CEM
KASUMI-2 = test system: KASUMI-2
MHH-CALL-3 = test system: MHH-CALL-3
P12-ICHIKAWA = test system: P12-ICHIKAWA
COG-LL-317 = test system: COG-LL-317
RPMI-8402 = test system: RPMI-8402
ALL-PO = test system: ALL-PO
NALM-6 = test system: NALM-6
380 = test system: 380
LC4-1 = test system: LC4-1
DND-41 = test system: DND-41
COG-LL-402h = test system: COG-LL-402h
COG-LL-394h = test system: COG-LL-394h
KASUMI-10 = test system: KASUMI-10
JURKAT = test system: JURKAT
RCH-ACV = test system: RCH-ACV
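Further: ALL cell lines in 384-well plates, five doses spanning 10,000-fold, each plate scaled between vehicle and 100 µmol/L benzalkonium chloride controls, sDSS an adapted area-under-curve metric.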

SMILES: Nc1ccccc1NC(=O)c1ccc(CNC(=O)OCc2cccnc2)cc1 [Entinostat] (top concentration 10000 nM)
- selective drug sensitivity score (NALM-16): 0.28
- selective drug sensitivity score (ALL-SIL): 12.1
- selective drug sensitivity score 697: 8.28
- selective drug sensitivity score (COG-LL-332h): -0.62
- selective drug sensitivity score (CCRF-CEM): 3.78
- selective drug sensitivity score (KASUMI-2): 7.68
- selective drug sensitivity score (MHH-CALL-3): 11.4
- selective drug sensitivity score (P12-ICHIKAWA): 7.58
- selective drug sensitivity score (COG-LL-317): 2.98
- selective drug sensitivity score (RPMI-8402): 5.08
- selective drug sensitivity score (ALL-PO): 4.08
- selective drug sensitivity score (NALM-6): 1.08
- selective drug sensitivity score 380: 13.1
- selective drug sensitivity score (LC4-1): 4.48
- selective drug sensitivity score (DND-41): 1.28
- selective drug sensitivity score (COG-LL-402h): 4.98
- selective drug sensitivity score (COG-LL-394h): -3.72
- selective drug sensitivity score (KASUMI-10): 3.68
- selective drug sensitivity score (JURKAT): 2.68
- selective drug sensitivity score (RCH-ACV): 9.98

SMILES: C#Cc1cccc(Nc2ncnc3cc(OCCOC)c(OCCOC)cc23)c1 [Erlotinib] (top concentration 10000 nM)
- selective drug sensitivity score (NALM-16): -1.24
- selective drug sensitivity score (ALL-SIL): 5.36
- selective drug sensitivity score 697: 5.86
- selective drug sensitivity score (COG-LL-332h): 1.96
- selective drug sensitivity score (CCRF-CEM): 2.06
- selective drug sensitivity score (KASUMI-2): 3.96
- selective drug sensitivity score (MHH-CALL-3): 1.66
- selective drug sensitivity score (P12-ICHIKAWA): 1.56
- selective drug sensitivity score (COG-LL-317): 0.16
- selective drug sensitivity score (RPMI-8402): 2.26
- selective drug sensitivity score (ALL-PO): 5.46
- selective drug sensitivity score (NALM-6): -1.24
- selective drug sensitivity score 380: 2.36
- selective drug sensitivity score (LC4-1): 8.66
- selective drug sensitivity score (DND-41): -1.24
- selective drug sensitivity score (COG-LL-402h): 4.06
- selective drug sensitivity score (COG-LL-394h): 2.66
- selective drug sensitivity score (KASUMI-10): 4.06
- selective drug sensitivity score (JURKAT): 2.26
- selective drug sensitivity score (RCH-ACV): 4.26

SMILES: O=C(Nc1nc2cccc(-c3ccc(CN4CCS(=O)(=O)CC4)cc3)n2n1)C1CC1 [Filgotinib] (top concentration 10000 nM)
- selective drug sensitivity score (NALM-16): -5.34
- selective drug sensitivity score (ALL-SIL): -0.24
- selective drug sensitivity score 697: 0.06
- selective drug sensitivity score (COG-LL-332h): -1.84
- selective drug sensitivity score (CCRF-CEM): -1.34
- selective drug sensitivity score (KASUMI-2): -0.74
- selective drug sensitivity score (MHH-CALL-3): 1.26
- selective drug sensitivity score (P12-ICHIKAWA): -1.64
- selective drug sensitivity score (COG-LL-317): 1.16
- selective drug sensitivity score (RPMI-8402): -2.24
- selective drug sensitivity score (ALL-PO): 6.16
- selective drug sensitivity score (NALM-6): -2.44
- selective drug sensitivity score 380: 11.7
- selective drug sensitivity score (LC4-1): -1.94
- selective drug sensitivity score (DND-41): 1.66
- selective drug sensitivity score (COG-LL-402h): -1.54
- selective drug sensitivity score (COG-LL-394h): -3.34
- selective drug sensitivity score (KASUMI-10): 1.46
- selective drug sensitivity score (JURKAT): -1.34
- selective drug sensitivity score (RCH-ACV): 1.56

SMILES: C[C@H]1C=C2C(=O)O[C@H]3CC[C@@H](C1)[C@@]23O [Galiellalactone] (top concentration 25000 nM)
- selective drug sensitivity score (NALM-16): 6.06
- selective drug sensitivity score (ALL-SIL): 5.56
- selective drug sensitivity score 697: 3.26
- selective drug sensitivity score (COG-LL-332h): 6.06
- selective drug sensitivity score (CCRF-CEM): 5.86
- selective drug sensitivity score (KASUMI-2): -0.44
- selective drug sensitivity score (MHH-CALL-3): 11.4
- selective drug sensitivity score (P12-ICHIKAWA): 1.86
- selective drug sensitivity score (COG-LL-317): 7.36
- selective drug sensitivity score (RPMI-8402): 0.06
- selective drug sensitivity score (ALL-PO): -0.34
- selective drug sensitivity score (NALM-6): 5.16
- selective drug sensitivity score 380: 13
- selective drug sensitivity score (LC4-1): 7.16
- selective drug sensitivity score (DND-41): 3.86
- selective drug sensitivity score (COG-LL-402h): 3.76
- selective drug sensitivity score (COG-LL-394h): -0.74
- selective drug sensitivity score (KASUMI-10): 4.56
- selective drug sensitivity score (JURKAT): 1.66
- selective drug sensitivity score (RCH-ACV): 7.76

SMILES: CN(C)C1CCN(C(=O)c2ccc(NC(=O)Nc3ccc(-c4nc(N5CCOCC5)nc(N5CCOCC5)n4)cc3)cc2)CC1 [Gedatolisib] (top concentration 1000 nM)
- selective drug sensitivity score (NALM-16): 1.46
- selective drug sensitivity score (ALL-SIL): 2.66
- selective drug sensitivity score 697: 11.3
- selective drug sensitivity score (COG-LL-332h): 4.96
- selective drug sensitivity score (CCRF-CEM): 7.26
- selective drug sensitivity score (KASUMI-2): 7.56
- selective drug sensitivity score (MHH-CALL-3): -1.64
- selective drug sensitivity score (P12-ICHIKAWA): 3.16
- selective drug sensitivity score (COG-LL-317): 5.06
- selective drug sensitivity score (RPMI-8402): 3.66
- selective drug sensitivity score (ALL-PO): 1.06
- selective drug sensitivity score (NALM-6): 5.16
- selective drug sensitivity score 380: 14.8
- selective drug sensitivity score (LC4-1): 3.06
- selective drug sensitivity score (DND-41): 4.46
- selective drug sensitivity score (COG-LL-402h): 8.56
- selective drug sensitivity score (COG-LL-394h): 0.56
- selective drug sensitivity score (KASUMI-10): 1.36
- selective drug sensitivity score (JURKAT): 2.66
- selective drug sensitivity score (RCH-ACV): 17.5

SMILES: Nc1ccn([C@@H]2O[C@H](CO)[C@@H](O)C2(F)F)c(=O)n1 [Gemcitabine] (top concentration 1000 nM)
- selective drug sensitivity score (NALM-16): 8.06
- selective drug sensitivity score (ALL-SIL): 12.1
- selective drug sensitivity score 697: 21
- selective drug sensitivity score (COG-LL-332h): 17.8
- selective drug sensitivity score (CCRF-CEM): 14.5
- selective drug sensitivity score (KASUMI-2): 15.1
- selective drug sensitivity score (MHH-CALL-3): 13.4
- selective drug sensitivity score (P12-ICHIKAWA): 15.8
- selective drug sensitivity score (COG-LL-317): 20.4
- selective drug sensitivity score (RPMI-8402): 9.56
- selective drug sensitivity score (ALL-PO): 8.06
- selective drug sensitivity score (NALM-6): 14.5
- selective drug sensitivity score 380: 23.5
- selective drug sensitivity score (LC4-1): 16.7
- selective drug sensitivity score (DND-41): 9.26
- selective drug sensitivity score (COG-LL-402h): 18.6
- selective drug sensitivity score (COG-LL-394h): -8.04
- selective drug sensitivity score (KASUMI-10): 16.8
- selective drug sensitivity score (JURKAT): 9.16
- selective drug sensitivity score (RCH-ACV): 18.5

SMILES: COc1cc2c(cc1-c1c(C)noc1C)ncc1[nH]c(=O)n([C@H](C)c3ccccn3)c12 [I-BET151] (top concentration 10000 nM)
- selective drug sensitivity score (NALM-16): 2.06
- selective drug sensitivity score (ALL-SIL): -2.14
- selective drug sensitivity score 697: 9.36
- selective drug sensitivity score (COG-LL-332h): -2.24
- selective drug sensitivity score (CCRF-CEM): 0.96
- selective drug sensitivity score (KASUMI-2): -2.94
- selective drug sensitivity score (MHH-CALL-3): 14.3
- selective drug sensitivity score (P12-ICHIKAWA): 4.06
- selective drug sensitivity score (COG-LL-317): 6.56
- selective drug sensitivity score (RPMI-8402): 4.36
- selective drug sensitivity score (ALL-PO): 6.36
- selective drug sensitivity score (NALM-6): 3.46
- selective drug sensitivity score 380: -7.44
- selective drug sensitivity score (LC4-1): 7.26
- selective drug sensitivity score (DND-41): 0.86
- selective drug sensitivity score (COG-LL-402h): 5.46
- selective drug sensitivity score (COG-LL-394h): 0.86
- selective drug sensitivity score (KASUMI-10): 5.66
- selective drug sensitivity score (JURKAT): 0.36
- selective drug sensitivity score (RCH-ACV): 12.3

SMILES: O=C1CCc2c(Oc3ccc4c(c3)[C@@H]3[C@H](O4)[C@H]3c3nc4cc(C(F)(F)F)ccc4[nH]3)ccnc2N1 [Lifirafenib (BGB-283)] (top concentration 10000 nM)
- selective drug sensitivity score (NALM-16): -0.02
- selective drug sensitivity score (ALL-SIL): 30
- selective drug sensitivity score 697: 6.68
- selective drug sensitivity score (COG-LL-332h): 8.18
- selective drug sensitivity score (CCRF-CEM): 4.18
- selective drug sensitivity score (KASUMI-2): 1.98
- selective drug sensitivity score (MHH-CALL-3): 0.68
- selective drug sensitivity score (P12-ICHIKAWA): 3.18
- selective drug sensitivity score (COG-LL-317): 2.28
- selective drug sensitivity score (RPMI-8402): 2.28
- selective drug sensitivity score (ALL-PO): 6.98
- selective drug sensitivity score (NALM-6): 5.58
- selective drug sensitivity score 380: 0.98
- selective drug sensitivity score (LC4-1): 3.28
- selective drug sensitivity score (DND-41): 1.18
- selective drug sensitivity score (COG-LL-402h): 2.38
- selective drug sensitivity score (COG-LL-394h): 6.88
- selective drug sensitivity score (KASUMI-10): 7.98
- selective drug sensitivity score (JURKAT): 5.28
- selective drug sensitivity score (RCH-ACV): 10.3

SMILES: NC(=O)N1CCC(CC(=O)N2CCC([C@H]3c4ncc(Br)cc4CCc4cc(Cl)cc(Br)c43)CC2)CC1 [Lonafarnib] (top concentration 100000 nM)
- selective drug sensitivity score (NALM-16): 4.04
- selective drug sensitivity score (ALL-SIL): 9.34
- selective drug sensitivity score 697: 7.54
- selective drug sensitivity score (COG-LL-332h): 10.1
- selective drug sensitivity score (CCRF-CEM): 9.74
- selective drug sensitivity score (KASUMI-2): 6.14
- selective drug sensitivity score (MHH-CALL-3): 4.54
- selective drug sensitivity score (P12-ICHIKAWA): 6.74
- selective drug sensitivity score (COG-LL-317): 14
- selective drug sensitivity score (RPMI-8402): 19.2
- selective drug sensitivity score (ALL-PO): 4.64
- selective drug sensitivity score (NALM-6): 6.24
- selective drug sensitivity score 380: -1.06
- selective drug sensitivity score (LC4-1): 3.44
- selective drug sensitivity score (DND-41): 4.54
- selective drug sensitivity score (COG-LL-402h): 3.64
- selective drug sensitivity score (COG-LL-394h): 3.04
- selective drug sensitivity score (KASUMI-10): -1.56
- selective drug sensitivity score (JURKAT): 5.74
- selective drug sensitivity score (RCH-ACV): 8.64
